From patent US12319912B2, “MicroRNA expression promoting agent and food or beverage for promoting expression of microRNA” (Kewpie Corporation, priority 2019, dated 2025)

Key:
Format in all cases: in vivo, nude mice (BALB/c-nu/nu)
Conditions in all cases: 0.25% (w/w) pterostilbene in feed, MM-231-luc-D3H2LN tumors removed at 21 days, female nude mice
miR-200c = assay: Expression level of miR-200c in removed tumors after oral administration of pterostilbene-containing feed (quantitative RT-PCR)
Protocol: (§1) An animal feed for test (pterostilbene-containing powdery animal feed) was prepared by the following method. That is, first, 50 g of corn oil was weighed and heated to 70° C. Pterostilbene was added to the heated corn oil and was dissolved therein. Reagents other than corn oil and pterostilbene (other reagents) were ground in a mortar, and the mixture was mixed. The corn oil in which pterostilbene was dissolved was added to the mixture of other reagents, and the mixture was mixed by sufficiently grinding in a mortar. Subsequently, the mixture was further mixed with a stirrer for about 30 minutes, and thus an animal feed for test was prepared. […]
(§2) At a time point where one week had passed after grouping, the mice in each group were subjected to a cancer cell transplantation experiment. […] Confirmation of whether the cancer cells were transplanted was achieved by leaving the animals for a while after transplantation, intraperitoneally administering a 15 mg/ml luciferin solution (Beetle Luciferin, Potassium Salt, Promega Corporation) in an amount of 150 mg/kg, and measuring cell-derived luminescence (luciferase activity) with IVIS Spectrum (PerkinElmer, Inc.) after about 10 minutes. […] The body weights of the mice were measured in a timely manner. […] Then, luminescence was observed over time with IVIS spectrum every other week from the day of administration initiation. […]

miR-141 = assay: Expression level of miR-141 in removed tumors after oral administration of pterostilbene-containing feed (quantitative RT-PCR)
Protocol: as §1, §2

miR-34a = assay: Expression level of miR-34a in removed tumors after oral administration of pterostilbene-containing feed (quantitative RT-PCR)
Protocol: as §1, §2

miR-16 = assay: Expression level of miR-16 in removed tumors after oral administration of pterostilbene-containing feed (quantitative RT-PCR)
Protocol: as §1, §2

miR-126 = assay: Expression level of miR-126 in removed tumors after oral administration of pterostilbene-containing feed (quantitative RT-PCR)
Protocol: as §1, §2

miR-193b = assay: Expression level of miR-193b in removed tumors after oral administration of pterostilbene-containing feed (quantitative RT-PCR)
Protocol: as §1, §2

let-7a = assay: Expression level of let-7a in removed tumors after oral administration of pterostilbene-containing feed (quantitative RT-PCR)
Protocol: as §1, §2

COc1cc(/C=C/c2ccc(O)cc2)cc(OC)c1 [pterostilbene, Pterostilbene]
promoted: expression of miR-200c as compared to the control group (miR-200c) | expression of miR-141 as compared to the control group (miR-141) | expression of miR-34a as compared to the control group (miR-34a) | expression of miR-16 as compared to the control group (miR-16) | expression of miR-126 as compared to the control group (miR-126) | expression of miR-193b as compared to the control group (miR-193b) | expression of let-7a as compared to the control group (let-7a)
